For 21 molecules, IC50 results are on record in US20240109900A1, “AZABICYCLIC SHP2 INHIBITORS” (IRBM S.P.A., priority 2021, published 2024).

The target of experiment [1] is SHP-2 enzyme (Met1-Leu525) (Homo sapiens (Human), UniProt Q06124). The experiment is described as follows: SHP2 inhibition enzymatic assay. Format: biochemical. The following applies: read-out: SHP2wt-IC50. An outline of the steps: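 Compounds were preincubated 30 min with 0.5 nM SHP-2 (Met1-Leu525) plus 500 nM IRS1 activating peptide (pH 7.2 HEPES, 5 mM DTT), then 75 μM DiFMUP substrate reacted 30 min at room temperature. After bpV quench, DiFMUP fluorescence gave % inhibition; four-parameter logistic fit yielded IC50.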

For experiment [2], the system named is ERK phosphorylation in KYSE-520 cells. The experiment is described as follows: Phospho-ERK cellular assay. Format: cell-based. The following applies: Homo sapiens, KYSE-520 cells, 2 h at 37° C., phospho-ERK1/2 (Thr202/Tyr204) TR-FRET, read-out: PERK IC50. A digest of the protocol:
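TR-FRET read-out of ERK1/2 Thr202/Tyr204 phosphorylation was taken after overnight antibody incubation at room temperature. Before that, KYSE-520 cells were treated 2 h at 37 °C with compound dilutions and lysed 30 min. Percent inhibition relative to vehicle and cell-free wells was fitted four-parametrically to give IC50.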
(In general: Time-resolved FRET reads energy transfer from a long-lived donor to a nearby acceptor.)

[3] abbreviates: 0.5 nM SHP-2 activated by 500 nM IRS1 peptide, 75 μM DiFMUP substrate.

Molecules are shown by their SMILES. Like-named read-outs stand apart in the source and are kept apart here.

Chain of SHP-2 enzyme (Met1-Leu525) (Q06124 1-525): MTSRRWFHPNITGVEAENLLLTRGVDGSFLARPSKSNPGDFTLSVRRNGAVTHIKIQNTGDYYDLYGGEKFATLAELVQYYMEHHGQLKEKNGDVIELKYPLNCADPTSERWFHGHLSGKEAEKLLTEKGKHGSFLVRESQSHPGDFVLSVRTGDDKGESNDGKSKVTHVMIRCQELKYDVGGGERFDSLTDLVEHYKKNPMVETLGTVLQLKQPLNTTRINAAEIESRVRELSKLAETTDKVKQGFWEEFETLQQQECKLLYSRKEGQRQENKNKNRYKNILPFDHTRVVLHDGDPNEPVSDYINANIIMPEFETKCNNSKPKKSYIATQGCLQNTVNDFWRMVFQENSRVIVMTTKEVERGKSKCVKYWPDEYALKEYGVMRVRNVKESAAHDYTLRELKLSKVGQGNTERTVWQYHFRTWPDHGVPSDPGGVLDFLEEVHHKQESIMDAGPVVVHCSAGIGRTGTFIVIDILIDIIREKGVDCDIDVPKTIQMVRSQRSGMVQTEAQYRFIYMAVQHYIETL

On to `Cc1cc([C@@]2(CN)[C@@H]3CCN(c4cnc5c(-c6ccc7nc(C(F)(F)F)ccc7c6)n[nH]c5n4)C[C@@H]32)no1` [Example 150, ((1S,6R,7S)-7-(5-methylisoxazol-3-yl)-3-(3-(2-(trifluoromethyl)quinolin-6-yl)-1H-pyrazolo[3,4-b]pyrazin-6-yl)-3-azabicyclo[4.1.0]heptan-7-yl)methanamine], for which the IC50 was less than 500 nM in experiment [1] (setting [3]) and less than 1000 nM in experiment [2] (KYSE-520, 2 h).
For `Cc1csc([C@@]2(CN)[C@@H]3CCN(c4cnc5c(-c6ccc7nc(C)sc7c6Cl)n[nH]c5n4)C[C@@H]32)n1` [Example 444, ((1S,6R,7S)-3-(3-(7-chloro-2-methylbenzo[d]thiazol-6-yl)-1H-pyrazolo[3,4-b]pyrazin-6-yl)-7-(4-methylthiazol-2-yl)-3-azabicyclo[4.1.0]heptan-7-yl)methanamine] the same measures were less than 500 nM and less than 1000 nM.
For the molecule `NC[C@]1(c2ccccc2F)[C@@H]2CCN(c3cnc4c(-c5ccnc6cnccc56)n[nH]c4n3)C[C@@H]21` [Example 155, ((1S,6R,7R)-3-(3-(1,7-naphthyridin-4-yl)-1H-pyrazolo[3,4-b]pyrazin-6-yl)-7-(2-fluorophenyl)-3-azabicyclo[4.1.0]heptan-7-yl)methanamine], the IC50 in experiment [1] (setting [3]) is less than 500 nM; in experiment [2] (KYSE-520, 2 h), less than 1000 nM.
`NC[C@]1(c2ccccc2F)[C@@H]2CCN(c3cnc4c(-c5ccc(O)cc5F)n[nH]c4n3)C[C@@H]21` [Example 332, 4-(6-((1S,6R,7R)-7-(aminomethyl)-7-(2-fluorophenyl)-3-azabicyclo[4.1.0]heptan-3-yl)-1H-pyrazolo[3,4-b]pyrazin-3-yl)-3-fluorophenol]: the IC50 in experiment [1] (setting [3]) is less than 500 nM; in experiment [2] (KYSE-520, 2 h), less than 1000 nM.
As for `NC[C@]1(c2ccccc2F)[C@@H]2CCN(c3cnc4c(-c5cc6c(cc5Cl)NC(=O)C6=O)n[nH]c4n3)C[C@@H]21` [Example 375, 5-(6-((1S,6R,7R)-7-(aminomethyl)-7-(2-fluorophenyl)-3-azabicyclo[4.1.0]heptan-3-yl)-1H-pyrazolo[3,4-b]pyrazin-3-yl)-6-chloroindoline-2,3-dione], the IC50 in experiment [1] (setting [3]) is less than 500 nM; in experiment [2] (KYSE-520, 2 h), less than 1000 nM.
Regarding `NCC1(c2ccsc2)C2CCN(c3cnc4c(-c5cccnc5C(F)(F)F)n[nH]c4n3)CC21` (stereo not drawn) [Example 96, (7-(thiophen-3-yl)-3-(3-(2-(trifluoromethyl)pyridin-3-yl)-1H-pyrazolo[3,4-b]pyrazin-6-yl)-3-azabicyclo[4.1.0]heptan-7-yl)methanamine], the IC50 is less than 500 nM in experiment [1] (setting [3]) and less than 1000 nM in experiment [2] (KYSE-520, 2 h).
In the case of `NC[C@]1(c2ccccc2F)[C@@H]2CCN(c3cnc4c(-c5cc(C(=O)O)ccc5Cl)n[nH]c4n3)C[C@@H]21` [Example 277, 3-(6-((1S,6R,7R)-7-(aminomethyl)-7-(2-fluorophenyl)-3-azabicyclo[4.1.0]heptan-3-yl)-1H-pyrazolo[3,4-b]pyrazin-3-yl)-4-chlorobenzoic acid], the IC50 in experiment [1] (setting [3]) was less than 500 nM; in experiment [2] (KYSE-520, 2 h), greater than 5000 nM.
For `Cn1c(=O)oc2ccc(-c3n[nH]c4nc(N5CC[C@@H]6[C@H](C5)[C@@]6(CN)c5ccccc5F)cnc34)cc21` [Example 341, 5-(6-((1S,6R,7R)-7-(aminomethyl)-7-(2-fluorophenyl)-3-azabicyclo[4.1.0]heptan-3-yl)-1H-pyrazolo[3,4-b]pyrazin-3-yl)-3-methylbenzo[d]oxazol-2(3H)-one] the same measures were less than 500 nM and less than 1000 nM.
For `Cc1cc(-c2n[nH]c3nc(N4CC[C@@H]5[C@H](C4)[C@@]5(CN)c4ccccc4F)cnc23)ccc1C(N)=O` [Example 246, 4-(6-((1S,6R,7R)-7-(aminomethyl)-7-(2-fluorophenyl)-3-azabicyclo[4.1.0]heptan-3-yl)-1H-pyrazolo[3,4-b]pyrazin-3-yl)-2-methylbenzamide] the same measures were less than 500 nM and less than 1000 nM.
For `CNC(=O)C1(CN)C2CCN(c3cnc4c(-c5ccc6nn(C)cc6c5Cl)n[nH]c4n3)CC21` (stereo not drawn) [Example 287, 7-(aminomethyl)-3-(3-(4-chloro-2-methyl-2H-indazol-5-yl)-1H-pyrazolo[3,4-b]pyrazin-6-yl)-N-methyl-3-azabicyclo[4.1.0]heptane-7-carboxamide] the same measures were less than 500 nM and less than 1000 nM.
For the molecule `Cc1csc(C2(CN)C3CCN(c4cnc(Sc5ccnc(N)c5Cl)c(N)n4)CC32)n1` (stereo not drawn) [Example 74, 3-((2-amino-3-chloropyridin-4-yl)thio)-6-(7-(aminomethyl)-7-(4-methylthiazol-2-yl)-3-azabicyclo[4.1.0]heptan-3-yl)pyrazin-2-amine], the IC50 in experiment [1] was less than 500 nM; in experiment [2], 1000 to 5000 nM.
For the molecule `NC[C@]1(c2ccccc2F)[C@@H]2CCN(c3cnc4c(-c5cnn(-c6ccccc6)c5)n[nH]c4n3)C[C@@H]21` [Example 390, ((1S,6R,7R)-7-(2-fluorophenyl)-3-(3-(1-phenyl-1H-pyrazol-4-yl)-1H-pyrazolo[3,4-b]pyrazin-6-yl)-3-azabicyclo[4.1.0]heptan-7-yl)methanamine], the IC50 in experiment [1] (setting [3]) was less than 500 nM; in experiment [2] (KYSE-520, 2 h), greater than 5000 nM.
On to `COc1c2c(Cl)c(-c3n[nH]c4nc(N5CC[C@@H]6[C@H](C5)[C@@]6(CN)c5cc(C)on5)cnc34)ccc2nn1C` [Example 109, ((1S,6R,7S)-3-(3-(4-chloro-3-methoxy-2-methyl-2H-indazol-5-yl)-1H-pyrazolo[3,4-b]pyrazin-6-yl)-7-(5-methylisoxazol-3-yl)-3-azabicyclo[4.1.0]heptan-7-yl)methanamine], for which the IC50 in experiment [1] (setting [3]) was less than 500 nM; in experiment [2] (KYSE-520, 2 h), less than 1000 nM.
For `NC[C@]1(c2ccccc2F)[C@@H]2CCN(c3cnc4c(-c5ccc6ncccc6c5)n[nH]c4n3)C[C@@H]21` [Example 141, ((1S,6R,7R)-7-(2-fluorophenyl)-3-(3-(quinolin-6-yl)-1H-pyrazolo[3,4-b]pyrazin-6-yl)-3-azabicyclo[4.1.0]heptan-7-yl)methanamine] the same measures were less than 500 nM and less than 1000 nM.
Consider `Cc1cc([C@@]2(CN)[C@@H]3CCN(c4cnc5c(-c6ccc(C(F)(F)F)c7ncccc67)n[nH]c5n4)C[C@@H]32)no1` [Example 43, ((1S,6R,7S)-7-(5-methylisoxazol-3-yl)-3-(3-(8-(trifluoromethyl)quinolin-5-yl)-1H-pyrazolo[3,4-b]pyrazin-6-yl)-3-azabicyclo[4.1.0]heptan-7-yl)methanamine], for which the IC50 in experiment [1] (setting [3]) is less than 500 nM; in experiment [2] (KYSE-520, 2 h), less than 1000 nM.
For `Cc1nc([C@@]2(CN)[C@@H]3CN(c4cnc5c(-c6ccc7nn(C)cc7c6Cl)n[nH]c5n4)C[C@@H]32)co1` [Example 514, ((1R,5S,6r)-3-(3-(4-chloro-2-methyl-2H-indazol-5-yl)-1H-pyrazolo[3,4-b]pyrazin-6-yl)-6-(2-methyloxazol-4-yl)-3-azabicyclo[3.1.0]hexan-6-yl)methanamine] the same measures were less than 500 nM and less than 1000 nM.
As for `NC[C@]1(c2ccccc2F)[C@@H]2CCN(c3cnc4c(-c5ccc6c(c5Cl)C(F)(F)C(=O)N6)n[nH]c4n3)C[C@@H]21` [Example 373, 5-(6-((1S,6R,7R)-7-(aminomethyl)-7-(2-fluorophenyl)-3-azabicyclo[4.1.0]heptan-3-yl)-1H-pyrazolo[3,4-b]pyrazin-3-yl)-4-chloro-3,3-difluoroindolin-2-one], the 50% inhibitory concentration (IC50) in experiment [1] (setting [3]) is less than 500 nM; in experiment [2] (KYSE-520, 2 h) it was less than 1000 nM.
`NC[C@]1(c2ccccc2F)[C@@H]2CCN(c3cnc4c(-c5ccc6nccc(N)c6c5)n[nH]c4n3)C[C@@H]21` [Example 258, 6-(6-((1S,6R,7R)-7-(aminomethyl)-7-(2-fluorophenyl)-3-azabicyclo[4.1.0]heptan-3-yl)-1H-pyrazolo[3,4-b]pyrazin-3-yl)quinolin-4-amine]: the IC50 was less than 500 nM in experiment [1] (setting [3]) and greater than 5000 nM in experiment [2] (KYSE-520, 2 h).
For `Cc1ccc2c(-c3n[nH]c4nc(N5CC[C@@H]6[C@H](C5)[C@@]6(CN)c5ccccc5F)cnc34)ccc(F)c2n1` [Example 226, ((1S,6R,7R)-3-(3-(8-fluoro-2-methylquinolin-5-yl)-1H-pyrazolo[3,4-b]pyrazin-6-yl)-7-(2-fluorophenyl)-3-azabicyclo[4.1.0]heptan-7-yl)methanamine] the same measures were less than 500 nM and less than 1000 nM.
For `Cc1cc(-c2n[nH]c3nc(N4CC[C@@H]5[C@H](C4)[C@@]5(CN)c4ccccc4F)cnc23)cc2cccnc12` [Example 173, ((1S,6R,7R)-7-(2-fluorophenyl)-3-(3-(8-methylquinolin-6-yl)-1H-pyrazolo[3,4-b]pyrazin-6-yl)-3-azabicyclo[4.1.0]heptan-7-yl)methanamine] the same measures were less than 500 nM and less than 1000 nM.
For `NC[C@]1(c2ccccc2F)[C@@H]2CCN(c3cc(=O)n4cc(-c5cccc(Cl)c5Cl)ccc4n3)C[C@@H]21` [Example 408, 2-((1S,6R,7R)-7-(aminomethyl)-7-(2-fluorophenyl)-3-azabicyclo[4.1.0]heptan-3-yl)-7-(2,3-dichlorophenyl)-4H-pyrido[1,2-a]pyrimidin-4-one] the same measures were less than 500 nM and greater than 5000 nM.

By IC50 is commonly meant the point on the concentration scale where inhibition reaches its midpoint.
